Experimental data taken from US20210361539A1, “NONAQUEOUS COMPOSITION FOR EXTERNAL USE ON SKIN AND METHOD FOR PRODUCING THE SAME” (CHANEL PARFUMS BEAUTE, priority 2017, published 2021).

Experiment: Particle size measurement by dynamic light scattering
Assay type: physicochemical
Conditions: steps (a) to (e) without palmitoyl-L-carnitine chloride
Procedure: The particle size of particles contained in the nonaqueous composition for external use on the skin immediately after preparation was measured by the dynamic light scattering method.
Specifically, the measurement was performed on the number mode using a nanoparticle analysis system (Zetasizer Nano ZSP model manufactured by Malvern Instruments Ltd.).

Particle size of composition containing particles of the surfactant alone: about 2.5 nm
Substance: sucrose erucic acid ester
